Reference: EP4692090A1 (Shanghai Fosun Pharmaceutical (Group) Co., Ltd., priority 2023, dated 2024)
Where two headings read alike, the source gives them in different places.

Experiments:
LoVo cells = assay: LoVo cell proliferation assay (CellTiter-Glo); type: cell-based; conditions: maximum concentration 10 µM, 9 concentrations
Outline: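 LoVo cells, 2,000 per well, were treated after overnight attachment with 9-point 3-fold dilutions from 10 µM for 5 days at 37 °C. Viability was read by CellTiter-Glo luminescence. Inhibition % was taken relative to DMSO control, and IC50 came from the concentration–inhibition curve.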

ATR kinase = biological target: T1, ATR kinase (Homo sapiens, UniProt Q13535); assay: Inhibitory effect on ATR kinase activity (Caliper mobility shift, FAM-labeled RAD17 peptide substrate); type: biochemical
T1 construct: purchased Eurofins 14-953
T1 sequence (Q13535 whole entry): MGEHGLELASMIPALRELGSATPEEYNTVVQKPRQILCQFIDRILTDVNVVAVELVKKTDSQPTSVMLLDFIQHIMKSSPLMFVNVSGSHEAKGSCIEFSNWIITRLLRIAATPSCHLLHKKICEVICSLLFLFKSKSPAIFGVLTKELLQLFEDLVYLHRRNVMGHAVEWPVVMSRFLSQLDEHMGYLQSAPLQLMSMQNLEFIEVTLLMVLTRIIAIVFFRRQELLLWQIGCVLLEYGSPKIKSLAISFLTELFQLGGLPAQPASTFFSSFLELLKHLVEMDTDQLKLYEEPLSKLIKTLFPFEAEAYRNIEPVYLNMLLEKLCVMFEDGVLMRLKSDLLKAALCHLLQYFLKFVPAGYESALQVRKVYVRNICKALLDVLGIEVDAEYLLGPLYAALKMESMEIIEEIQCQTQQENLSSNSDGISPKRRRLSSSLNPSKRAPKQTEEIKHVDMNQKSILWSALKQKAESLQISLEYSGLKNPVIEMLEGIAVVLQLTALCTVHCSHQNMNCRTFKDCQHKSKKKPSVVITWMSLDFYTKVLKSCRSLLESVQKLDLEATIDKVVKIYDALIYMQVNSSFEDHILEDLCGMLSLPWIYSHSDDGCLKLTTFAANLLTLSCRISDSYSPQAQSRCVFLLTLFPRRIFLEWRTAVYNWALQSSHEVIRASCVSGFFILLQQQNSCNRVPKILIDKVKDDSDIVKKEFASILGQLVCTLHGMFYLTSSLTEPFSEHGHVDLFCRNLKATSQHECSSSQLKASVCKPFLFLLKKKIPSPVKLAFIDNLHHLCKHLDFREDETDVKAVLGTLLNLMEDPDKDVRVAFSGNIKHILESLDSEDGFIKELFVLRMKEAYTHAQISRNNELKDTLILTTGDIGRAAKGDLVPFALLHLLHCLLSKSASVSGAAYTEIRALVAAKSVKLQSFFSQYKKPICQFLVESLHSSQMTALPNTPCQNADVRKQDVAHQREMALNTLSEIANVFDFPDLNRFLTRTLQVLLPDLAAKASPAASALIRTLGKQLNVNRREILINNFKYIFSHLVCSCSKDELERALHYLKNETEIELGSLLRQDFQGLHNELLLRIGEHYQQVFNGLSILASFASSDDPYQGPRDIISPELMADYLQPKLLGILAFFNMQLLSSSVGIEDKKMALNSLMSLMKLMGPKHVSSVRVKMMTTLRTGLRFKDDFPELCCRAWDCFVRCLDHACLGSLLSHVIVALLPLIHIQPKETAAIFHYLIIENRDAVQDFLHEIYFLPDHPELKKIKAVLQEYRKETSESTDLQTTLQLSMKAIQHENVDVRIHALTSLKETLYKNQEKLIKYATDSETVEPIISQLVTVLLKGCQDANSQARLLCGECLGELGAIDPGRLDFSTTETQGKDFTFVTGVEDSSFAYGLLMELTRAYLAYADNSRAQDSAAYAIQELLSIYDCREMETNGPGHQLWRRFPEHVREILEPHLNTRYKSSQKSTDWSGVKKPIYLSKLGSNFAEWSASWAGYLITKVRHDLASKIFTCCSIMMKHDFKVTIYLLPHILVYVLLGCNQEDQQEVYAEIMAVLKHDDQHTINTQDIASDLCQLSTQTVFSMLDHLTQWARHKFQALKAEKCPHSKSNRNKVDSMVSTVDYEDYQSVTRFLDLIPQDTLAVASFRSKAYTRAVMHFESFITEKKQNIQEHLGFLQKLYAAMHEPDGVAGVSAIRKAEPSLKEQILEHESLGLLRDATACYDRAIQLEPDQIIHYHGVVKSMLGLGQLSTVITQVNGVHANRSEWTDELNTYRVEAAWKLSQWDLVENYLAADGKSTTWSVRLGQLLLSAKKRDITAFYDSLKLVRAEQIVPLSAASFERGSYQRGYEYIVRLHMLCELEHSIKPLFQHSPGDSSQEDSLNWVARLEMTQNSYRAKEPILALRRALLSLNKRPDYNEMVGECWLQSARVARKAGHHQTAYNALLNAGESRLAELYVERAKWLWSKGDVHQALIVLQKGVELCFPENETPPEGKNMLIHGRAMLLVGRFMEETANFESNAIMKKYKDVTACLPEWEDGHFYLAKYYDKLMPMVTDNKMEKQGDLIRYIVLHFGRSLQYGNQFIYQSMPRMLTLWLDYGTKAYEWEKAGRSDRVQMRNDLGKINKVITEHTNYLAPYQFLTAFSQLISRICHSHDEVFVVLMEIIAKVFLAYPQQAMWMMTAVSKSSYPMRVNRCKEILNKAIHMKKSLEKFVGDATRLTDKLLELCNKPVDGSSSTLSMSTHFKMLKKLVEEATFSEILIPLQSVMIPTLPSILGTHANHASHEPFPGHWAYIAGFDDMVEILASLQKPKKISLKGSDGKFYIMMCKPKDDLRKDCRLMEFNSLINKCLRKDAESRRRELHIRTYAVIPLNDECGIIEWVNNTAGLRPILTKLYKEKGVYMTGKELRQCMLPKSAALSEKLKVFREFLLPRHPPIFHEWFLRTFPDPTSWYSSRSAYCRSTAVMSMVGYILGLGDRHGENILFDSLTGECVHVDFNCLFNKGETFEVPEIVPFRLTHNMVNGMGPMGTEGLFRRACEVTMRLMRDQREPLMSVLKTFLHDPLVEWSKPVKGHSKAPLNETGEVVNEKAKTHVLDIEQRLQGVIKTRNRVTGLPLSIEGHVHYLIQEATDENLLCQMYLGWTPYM
T1 sequence (Q8WXE1 whole entry partner): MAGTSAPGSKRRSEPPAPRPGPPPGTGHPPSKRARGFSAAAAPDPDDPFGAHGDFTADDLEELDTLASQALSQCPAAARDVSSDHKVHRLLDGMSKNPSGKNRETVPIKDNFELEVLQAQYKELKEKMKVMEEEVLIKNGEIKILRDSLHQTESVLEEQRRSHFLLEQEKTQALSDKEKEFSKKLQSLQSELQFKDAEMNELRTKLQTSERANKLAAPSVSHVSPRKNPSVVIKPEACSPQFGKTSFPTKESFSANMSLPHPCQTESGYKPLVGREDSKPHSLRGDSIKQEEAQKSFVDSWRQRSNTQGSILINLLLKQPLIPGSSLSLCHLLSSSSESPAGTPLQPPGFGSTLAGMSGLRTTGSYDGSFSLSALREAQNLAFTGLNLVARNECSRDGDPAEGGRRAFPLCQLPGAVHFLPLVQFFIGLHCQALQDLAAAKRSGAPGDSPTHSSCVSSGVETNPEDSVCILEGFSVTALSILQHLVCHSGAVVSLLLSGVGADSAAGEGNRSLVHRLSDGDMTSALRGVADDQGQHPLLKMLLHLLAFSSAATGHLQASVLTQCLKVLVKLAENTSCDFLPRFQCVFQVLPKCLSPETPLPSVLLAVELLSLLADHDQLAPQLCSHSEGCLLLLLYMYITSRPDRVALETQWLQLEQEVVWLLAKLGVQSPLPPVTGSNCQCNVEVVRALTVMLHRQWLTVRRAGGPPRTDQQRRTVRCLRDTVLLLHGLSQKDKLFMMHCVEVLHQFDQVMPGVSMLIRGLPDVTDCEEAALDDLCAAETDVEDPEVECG
Description: Test Example 1: Inhibitory effect of the compounds of the present disclosure on ATR kinase activity
Test compounds to be tested were serially diluted with DMSO (maximum concentration 1 µM, 10 concentrations with 3-fold serial dilution) and added to the wells of a 384-well reaction plate (Corning, #4512). 1 nM ATR kinase (Eurofins, #14-953), 5 mM substrate (FAM-labeled RAD17 peptide, FAM-ASELPASQPQPFSAKKK), 5 mM ATP and the compounds with corresponding concentrations reacted in a kinase reaction solution (50 mM HEPES, pH 7.5; 0.0015% Brij-35; 10 mM MnCl2, total volume of 20 µL) at 28°C for 3 hours. The reaction was terminated by adding 30 µL of stop solution (100 mM HEPES, pH 7.5; 0.015% Brij-35; 0.2% Coating Reagent #3, PerkinElmer; 50 mM EDTA). The reaction plate was placed on a Caliper instrument (PerkinElmer) for testing. The relative inhibitory activity of each compound concentration group was calculated using the following formula: % Inhibition = (Conversion rate of the blank control group without compound added - Conversion rate of the test compound group) / (Conversion rate of the blank control group - […]). The IC50 values were calculated using GraphPad analysis and fitted. […] Table 1. Inhibitory effect (IC50) of compounds on ATR kinase activity.

[1] = Homo sapiens, LoVo, 120 h, LoVo cells, 2,000 cells per well, 5 days incubation, CellTiter-Glo, read-out: LoVo IC50
[2] = 1 nM ATR kinase (Eurofins), 28°C for 3 hours, maximum concentration 1 µM, 10 concentrations, read-out: ATR kinase IC50
[3] = Homo sapiens, LoVo, 120 h, read-out: LoVo IC50 (nM), LoVo cells, 2,000 cells per well, 5 days incubation, CellTiter-Glo
[4] = read-out: ATR kinase IC50, 1 nM ATR kinase (Eurofins), 28°C for 3 hours, maximum concentration 1 µM, 10 concentrations
[5] = LoVo cells, 2,000 cells per well, 5 days incubation, CellTiter-Glo, read-out: LoVo IC50

CCN1CCc2nn(-c3cc[nH]n3)c3nc(N4CCOC[C@H]4C)cc(c23)C1C (single isomer, unassigned) [Compound 41A] was tested, and the IC50 (LoVo cells; [1]) was < 100 nM and the IC50 (ATR kinase; [2]) was < 10 nM.

CCC1c2cc(N3CCOC[C@H]3C)nc3c2c(nn3-c2cc[nH]n2)CCN1S(C)(=O)=O (single isomer, unassigned) [Compound 144A] was tested, and the IC50 (LoVo cells; [1]) was 100 to 1000 nM and the IC50 (ATR kinase; [2]) was < 10 nM.

For C[C@@H]1COCCN1c1cc2c3c(n1)c(-c1cc[nH]n1)nn3CCC(=O)N2C1(CF)CC1 [Compound 112, (R)-6-(1-(fluoromethyl)cyclopropyl)-4-(3-methylmorpholinyl)-2-(1H-pyrazol-3-yl)-8,9-dihydro-1,3,6,9a-tetraazabenzo[cd]azulene-7(6H)-one], the IC50 (LoVo cells; [3]) was < 100 nM and the IC50 (ATR kinase; [4]) was < 10 nM.

For CCN1CCc2nn(-c3cc[nH]n3)c3nc(N4CCOC[C@H]4C)cc(c23)C1C (single isomer, unassigned) [Compound 41B], the IC50 (LoVo cells; [5]) was < 100 nM and the IC50 (ATR kinase; [2]) was < 10 nM.

For COCC1(N2C(=O)CCn3nc(-c4cc[nH]n4)c4nc(N5CCOC[C@H]5C)cc2c43)CC1 [Compound 113, (R)-6-(1-(methoxymethyl)cyclopropyl)-4-(3-methylmorpholinyl)-2-(1H-pyrazol-3-yl)-8,9-dihydro-1,3,6,9a-tetraazabenzo[cd]azulene-7(6H)-one], the IC50 (LoVo cells; [3]) was 100 to 1000 nM and the IC50 (ATR kinase; [4]) was 10 to 100 nM.

C[C@@H]1COCCN1c1cc2c3c(n1)c(-c1cc[nH]n1)nn3CCN(C(=O)C1CC(F)(F)C1)C2 [Compound 53, (R)-(3,3-difluorocyclobutyl)(4-(3-methylmorpholino)-2-(1H-pyrazol-3-yl)-8,9-dihydro-1,3,7,9a-tetraazabenzo[cd]azulene-7(6H)-yl)methanone] was tested, and the IC50 (LoVo cells; [1]) was > 1000 nM and the IC50 (ATR kinase; [2]) was 10 to 100 nM.

CC1c2cc(N3CCOC[C@H]3C)nc3c2c(nn3-c2cc[nH]n2)CCN1S(C)(=N)=O (single isomer, unassigned) [Compound 46C] was tested, and the IC50 (LoVo cells; [5]) was < 100 nM and the IC50 (ATR kinase; [2]) was < 10 nM.

CC(C)N1CCn2nc(-c3cc[nH]n3)c3nc(N4CCOC[C@H]4C)cc1c32 [Compound 63, (R)-4-(5-isopropyl-1-(1H-pyrazol-3-yl)-4,5-dihydro-3H-2,2a,5,8-tetraazaacenaphthen-7-yl)-3-methylmorpholine] showed an IC50 (LoVo cells; [1]) of 100 to 1000 nM and an IC50 (ATR kinase; [2]) of 100 to 1000 nM.

In the case of CC1c2cc(N3CCOC[C@H]3C)nc3c2c(nn3-c2cc[nH]n2)CCN1S(=O)(=O)C1CC1F (single isomer, unassigned) [Compound 151B], the IC50 (LoVo cells; [5]) is reported as < 100 nM and the IC50 (ATR kinase; [2]) is reported as < 10 nM.

In the case of CC1c2cc(N3CCOC[C@H]3C)nc3c2c(nn3-c2cc[nH]n2)CCN1C(=O)C1(C(F)(F)F)CC1 (single isomer, unassigned) [Compound 33A], the IC50 (LoVo cells; [3]) is reported as < 100 nM and the IC50 (ATR kinase; [4]) is reported as < 10 nM.

For C[C@@H]1COCCN1c1cc2c3c(nn(-c4cc[nH]n4)c3n1)CCN(S(C)(=N)=O)C2 (stereo partly drawn) [Compound 28, (3R)-3-methyl-4-(7-(S-methylsulfonylimino)-2-(1H-pyrazol-3-yl)-6,7,8,9-tetrahydro-2H-1,2,3,7-tetraazabenzo[cd]azulen-4-yl)morpholine], the IC50 (LoVo cells; [1]) was > 1000 nM and the IC50 (ATR kinase; [2]) was 10 to 100 nM.

Work on CCC1c2cc(N3CCOC[C@H]3C)nc3c2c(nn3-c2cc[nH]n2)CCN1S(=O)(=O)C1CC1 (single isomer, unassigned) [Compound 145A] yielded an IC50 (LoVo cells; [1]) of 100 to 1000 nM and an IC50 (ATR kinase; [2]) of 10 to 100 nM.

For C[C@@H]1COCCN1c1cc2c3c(nn(-c4cc[nH]n4)c3n1)CCC(=O)N2C1(C)CC1 [Compound 75, (R)-6-(1-methylcyclopropyl)-4-(3-methylmorpholino)-2-(1H-pyrazol-3-yl)-2,6,8,9-tetrahydro-7H-1,2,3,6-tetraazabenzo[cd]azulene-7-one], the IC50 (LoVo cells; [1]) was < 100 nM and the IC50 (ATR kinase; [2]) was < 10 nM.

In the case of CC(C)N1C(=O)CCn2nc(-c3cc[nH]n3)c3nc(N4CCOC[C@H]4C)cc1c32 [Compound 81, (R)-6-isopropyl-4-(3-methylmorpholinyl)-2-(1H-pyrazol-3-yl)-8,9-dihydro-1,3,6,9a-tetraazabenzo[cd]azulene-7(6H)-one], the IC50 (LoVo cells; [3]) is reported as < 100 nM and the IC50 (ATR kinase; [4]) is reported as < 10 nM.

In the case of C[C@@H]1COCCN1c1cc2c3c(n1)c(-c1cc[nH]n1)nn3CCC(=O)N2C1(C)COC1 [Compound 101, (R)-4-(3-methylmorpholinyl)-6-(3-methyloxetan-3-yl)-2-(1H-pyrazol-3-yl)-8,9-dihydro-1,3,6,9a-tetraazabenzo[cd]azulene-7(6H)-one], the IC50 (LoVo cells; [3]) is reported as 100 to 1000 nM and the IC50 (ATR kinase; [4]) is reported as 10 to 100 nM.

C[C@@H]1COCCN1c1cc2c3c(n1)c(-c1cc[nH]n1)nn3CCN(S(C)(=O)=O)C2 [Compound 55, (R)-3-methyl-4-(7-(methylsulfonyl)-2-(1H-pyrazol-3-yl)-6,7,8,9-tetrahydro-1,3,7,9a-tetraazabenzo[cd]azulen-4-yl)morpholine] was tested, and the IC50 (LoVo cells; [1]) was 100 to 1000 nM and the IC50 (ATR kinase; [2]) was 10 to 100 nM.

C[C@@H]1COCCN1c1cc2c3c(nn(-c4cc[nH]n4)c3n1)CCN(C1CC3CCC(C1)O3)C2 (stereo partly drawn) [Compound 6, (3R)-4-(7-(8-oxabicyclo[3.2.1]octan-3-yl)-2-(1H-pyrazol-3-yl)-6,7,8,9-tetrahydro-2H-1,2,3,7-tetraazabenzo[cd]azulen-4-yl)-3-methylmorpholine] gave an IC50 (LoVo cells; [1]) of 100 to 1000 nM and an IC50 (ATR kinase; [2]) of 100 to 1000 nM.

C[C@@H]1COCCN1c1cc2c3c(nn(-c4cc[nH]n4)c3n1)CCN(CC(F)(F)F)C2 [Compound 14, (R)-4-(2-(1H-pyrazol-3-yl)-7-(2,2,2-trifluoroethyl)-6,7,8,9-tetrahydro-2H-1,2,3,7-tetraazabenzo[cd]azulen-4-yl)-3-methylmorpholine] gave an IC50 (LoVo cells; [1]) of 100 to 1000 nM and an IC50 (ATR kinase; [2]) of 10 to 100 nM.

C[C@@H]1COCCN1c1cc2c3c(n1)c(-c1cc[nH]n1)nn3CCC(=O)N2C [Compound 86, (R)-6-methyl-4-(3-methylmorpholino)-2-(1H-pyrazol-3-yl)-8,9-dihydro-1,3,6,9a-tetraazabenzo[cd]azulene-7(6H)-one] showed an IC50 (LoVo cells; [1]) of 100 to 1000 nM and an IC50 (ATR kinase; [2]) of 100 to 1000 nM.

With C[C@@H]1COCCN1c1cc2c3c(nn(-c4cc[nH]n4)c3n1)CCN(C(=O)CC(F)(F)F)C2 [Compound 10, (R)-3,3,3-trifluoro-1-(4-(3-methylmorpholino)-2-(1H-pyrazol-3-yl)-2,6,8,9-tetrahydro-7H-1,2,3,7-tetraazabenzo[cd]azulen-7-yl)propan-1-one] the IC50 (LoVo cells; [1]) was > 1000 nM and the IC50 (ATR kinase; [2]) was 10 to 100 nM.

CC1c2cc(N3CCOC[C@H]3C)nc3c2c(nn3-c2cc[nH]n2)CCN1C1COC1 (single isomer, unassigned) [Compound 32B] was tested, and the IC50 (LoVo cells; [5]) was < 100 nM and the IC50 (ATR kinase; [2]) was 10 to 100 nM.

C#CC(C)N1CCc2nn(-c3cc[nH]n3)c3nc(N4CCOC[C@H]4C)cc(c23)C1 (stereo partly drawn) [Compound 21, (3R)-4-(7-(but-3-yn-2-yl)-2-(1H-pyrazol-3-yl)-6,7,8,9-tetrahydro-2H-1,2,3,7-tetraazabenzo[cd]azulen-4-yl)-3-methylmorpholine] was tested, and the IC50 (LoVo cells; [1]) was 100 to 1000 nM and the IC50 (ATR kinase; [2]) was 10 to 100 nM.

CC(C)CN1C(=O)CCn2nc(-c3cc[nH]n3)c3nc(N4CCOC[C@H]4C)cc1c32 [Compound 84, (R)-6-isobutyl-4-(3-methylmorpholino)-2-(1H-pyrazol-3-yl)-8,9-dihydro-1,3,6,9a-tetraazabenzo[cd]azulene-7(6H)-one] was tested, and the IC50 (LoVo cells; [1]) was < 100 nM and the IC50 (ATR kinase; [2]) was < 10 nM.

In the case of CC1CC(C(=O)N2CCc3nn(-c4cc[nH]n4)c4nc(N5CCOC[C@H]5C)cc(c34)C2)C1 (stereo partly drawn) [Compound 15, (R)-(3-methylcyclobutyl)(4-(3-methylmorpholino)-2-(1H-pyrazol-3-yl)-2,6,8,9-tetrahydro-7H-1,2,3,7-tetraazabenzo[cd]azulene-7-yl)methanone], the IC50 (LoVo cells; [1]) is reported as 100 to 1000 nM and the IC50 (ATR kinase; [2]) is reported as 10 to 100 nM.
